In US20260297042A1, “BIARYLAMIDE DERIVATIVES AND THEIR USE AS PKMYT1 INHIBITORS” (CANCER RESEARCH TECHNOLOGY LIMITED, priority 2023, published 2026):

What was measured:
KYSE-30 cells = assay: Cancer cell line proliferation assay, ATP-based cell viability (Cell Titre Glow), KYSE-30 (normal CCNE1); conditions: Homo sapiens, KYSE-30 cells (normal CCNE1), concentration that achieves 50% cell growth proliferation inhibition, read-out: KYSE30 Gl50
Summary of the method: (§1)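 GI50 reflects half-maximal growth inhibition by PKMYT1 inhibitors, derived by curve fitting of CellTiter-Glo luminescence signals.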

OVCAR 3 cells = assay: Cancer cell line proliferation assay, ATP-based cell viability (Cell Titre Glow), OVCAR 3 (CCNE1-amplified); conditions: KYSE30 (normal CCNE1) GI50 vs. OVCAR 3 (CCNE1-amplified) GI50
Summary of the method: as §1

[1] = target: T1, Cellular PKMYT1 Biomarker CDK1 pT14 (Homo sapiens, UniProt Q99640); assay: Inhibition of cellular PKMYT1 biomarker CDK1 pT14 in OVCAR 3 cells (immunoblot); assay type: cell-based; conditions: 20 hours incubation
T1 construct: read-out CDK1 phospho-T14 immunoblot
T1 sequence (Q99640 1-499): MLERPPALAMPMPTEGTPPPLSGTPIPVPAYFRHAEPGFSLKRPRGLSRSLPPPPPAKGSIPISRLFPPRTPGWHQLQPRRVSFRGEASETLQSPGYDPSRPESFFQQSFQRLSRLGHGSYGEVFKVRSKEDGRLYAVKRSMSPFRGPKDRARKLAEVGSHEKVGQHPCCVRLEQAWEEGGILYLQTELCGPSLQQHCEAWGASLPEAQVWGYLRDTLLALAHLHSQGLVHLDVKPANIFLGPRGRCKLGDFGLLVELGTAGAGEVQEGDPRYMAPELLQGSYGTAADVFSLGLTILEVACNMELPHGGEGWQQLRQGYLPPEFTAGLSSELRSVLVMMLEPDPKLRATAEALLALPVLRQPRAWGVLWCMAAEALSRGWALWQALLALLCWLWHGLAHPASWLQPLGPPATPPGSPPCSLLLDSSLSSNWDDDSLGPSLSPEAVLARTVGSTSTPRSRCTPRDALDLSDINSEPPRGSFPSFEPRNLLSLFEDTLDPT
Summary of the method: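 Confluent OVCAR 3 cells treated with a compound concentration range for 20 h at 37 °C. Lysates analysed by automated capillary immunoblot for CDK1 phospho-T14, with vinculin, fluorescence detection; IC50 by regression.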

Human PKMYT1 = target: T2, Human PKMYT1 (Homo sapiens, UniProt Q99640); assay: PKMYT1 biochemical ADP-Glo enzymatic assay; conditions: ADP-Glo
T2 construct: Human PKMYT1 75-362 was cloned as a TEV cleavable 6xHis fusion; 6xHis (TEV cleavable) (cleaved yes); made in house; host or cells: bacterial cells
T2 sequence (Q99640 75-362): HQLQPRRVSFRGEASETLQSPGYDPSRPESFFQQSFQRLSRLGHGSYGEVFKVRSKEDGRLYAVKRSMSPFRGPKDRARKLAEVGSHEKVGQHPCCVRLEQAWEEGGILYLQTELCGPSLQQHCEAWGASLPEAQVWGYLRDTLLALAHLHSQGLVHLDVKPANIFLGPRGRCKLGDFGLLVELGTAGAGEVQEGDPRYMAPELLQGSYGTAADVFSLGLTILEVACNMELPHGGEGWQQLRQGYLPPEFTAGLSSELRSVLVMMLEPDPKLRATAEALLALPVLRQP
Summary of the method: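 Measures inhibition of PKMYT1 autonomous ATP hydrolysis: bacterially expressed human enzyme (75-362, tag cleaved) at 15 nM with 500 µM ATP for 60 min at 26 °C, then ADP-Glo Max detection. IC50s accepted only when replicates agreed within 3-fold and curve r2 exceeded 0.9.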

WEE1 = target: T3, WEE1 (Homo sapiens, UniProt P30291); assay: Selectivity versus WEE1 assay (ADP-Glo enzymatic assay); assay type: biochemical; conditions: for IC50: ADP-Glo; for PKMYT1 vs. WEE1 selectivity: fold difference in selectivity for PKMYT1 over WEE1
T3 construct: purchased Thermo Fisher PR7373A
Summary of the method: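 Same format as the PKMYT1 assay: WEE1 at 15 nM final with 30 µM ATP, 60 min at 26° C, ADP-Glo luminescence detection, IC50 by dose-response fitting.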

[2] = 15 nM PKMYT1 kinase domain, 500 µM ATP, 60 minutes at 26° C., banded
[3] = 15 nM WEE1, 60 minutes at 26° C., banded
[4] = banded, ">N" = at least in this band but could be higher
[5] = PKMYT1 kinase domain 15 nM, banded values

T3 sequence (P30291 whole entry): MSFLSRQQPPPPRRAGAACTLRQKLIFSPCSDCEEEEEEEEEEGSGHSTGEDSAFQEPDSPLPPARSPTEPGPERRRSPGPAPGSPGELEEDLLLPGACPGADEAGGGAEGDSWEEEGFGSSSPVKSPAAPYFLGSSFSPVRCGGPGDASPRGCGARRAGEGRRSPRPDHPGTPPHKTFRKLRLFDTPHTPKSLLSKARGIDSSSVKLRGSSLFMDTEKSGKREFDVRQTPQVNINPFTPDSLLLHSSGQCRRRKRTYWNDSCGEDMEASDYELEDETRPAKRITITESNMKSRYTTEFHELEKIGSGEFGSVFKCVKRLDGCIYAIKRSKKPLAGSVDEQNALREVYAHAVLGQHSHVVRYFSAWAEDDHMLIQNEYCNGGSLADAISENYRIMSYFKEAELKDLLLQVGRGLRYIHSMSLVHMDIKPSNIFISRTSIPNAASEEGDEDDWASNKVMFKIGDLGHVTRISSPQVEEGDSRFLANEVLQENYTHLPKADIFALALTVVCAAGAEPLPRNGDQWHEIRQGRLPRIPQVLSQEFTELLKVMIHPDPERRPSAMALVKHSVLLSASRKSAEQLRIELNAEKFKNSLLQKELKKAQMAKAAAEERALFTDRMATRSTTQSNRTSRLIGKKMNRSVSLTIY

Compound	GI50 (KYSE-30 cells) [nM]	Selectivity ratio KYSE30 Gl50 vs. OVCAR3 Gl50 (OVCAR 3 cells)	IC50 [1] [nM]	IC50 (Human PKMYT1; [2]) [nM]	IC50 (WEE1; [3]) [nM]	PKMYT1 vs. WEE1 selectivity (WEE1; [4])	IC50 (Human PKMYT1; [5]) [nM]	IC50 (WEE1; WEE1 15 nM, banded values) [nM]	PKMYT1 vs. WEE1 selectivity (WEE1; banded)
Cc1cn(C2COC2)nc1Nc1ncc(C(=O)Nc2c(C)ccc(O)c2C)s1 [BAA-269, N-(3-hydroxy-2,6-dimethylphenyl)-2-((4-methyl-1-(oxetan-3-yl)-1H-pyrazol-3-yl)amino) thiazole-5-carboxamide]	500 to 5000	Y (>20 fold)	< 100	< 50	50 to 1000	W (10-<100 fold)			
Cc1ccc(O)c(C)c1NC(=O)c1cnc(Nc2nn(C)c3ccccc23)s1 [BAA-126, N-(3-hydroxy-2,6-dimethyl-phenyl)-2-[(1-methylindazol-3-yl)amino]thiazole-5-carboxamide]	> 5000	Y (>20 fold)	< 100	< 50	1000 to 11000	X (100-<1000 fold)			
Cc1ccc(O)c(C)c1NC(=O)c1cnc(Nc2cccc(N(C)C)n2)s1 [BAA-417, 2-((6-(dimethylamino)pyridin-2-yl)amino)-N-(3-hydroxy-2,6-dimethylphenyl)thiazole-5-carboxamide]	500 to 5000	Y (>20 fold)	100 to 1000				< 50	> 11000	X (100-<1000 fold)
CCN(CC)C(=O)Cn1cc(Cl)c(Nc2ncc(C(=O)Nc3c(C)ccc(O)c3C)s2)n1 [BAA-560, 2-((4-chloro-1-(2-(diethylamino)-2-oxoethyl)-1H-pyrazol-3-yl)amino)-N-(3-hydroxy-2,6-dimethylphenyl)thiazole-5-carboxamide]	500 to 5000	Y (>20 fold)	< 100				< 50	1000 to 11000	X (100-<1000 fold)
Cc1cn(CC(=O)N2CCCC2(C)C)nc1Nc1ncc(C(=O)Nc2c(C)ccc(O)c2C)s1 [BAA-605, 2-((1-(2-(2,2-dimethylpyrrolidin-1-yl)-2-oxoethyl)-4-methyl-1H-pyrazol-3-yl)amino)-N-(3-hydroxy-2,6-dimethylphenyl)thiazole-5-carboxamide]	> 5000	Y (>20 fold)	< 100				< 50	1000 to 11000	X (100-<1000 fold)
Cc1ccc(-c2cnn(C)c2)nc1Nc1ncc(C(=O)Nc2c(C)ccc(O)c2C)s1 [BAA-396, N-(3-hydroxy-2,6-dimethylphenyl)-2-((3-methyl-6-(1-methyl-1H-pyrazol-4-yl)pyridin-2-yl)amino)thiazole-5-carboxamide]	500 to 5000	Y (>20 fold)	< 100				< 50	1000 to 11000	X (100-<1000 fold)
Cc1cn(C(C)C(=O)N2CCCC2)nc1Nc1ncc(C(=O)Nc2c(C)ccc(O)c2C)s1 (stereo not drawn) [BAA-488, N-(3-hydroxy-2,6-dimethylphenyl)-2-((4-methyl-1-(1-oxo-1-(pyrrolidin-1-yl)propan-2-yl)-1H-pyrazol-3-yl)amino)thiazole-5-carboxamide]	> 5000	Y (>20 fold)	< 100				< 50	1000 to 11000	X (100-<1000 fold)
Cc1ccc(O)c(C)c1NC(=O)c1cnc(Nc2ccc3ncccc3n2)s1 [BAA-596, 2-((1,5-naphthyridin-2-yl)amino)-N-(3-hydroxy-2,6-dimethylphenyl)thiazole-5-carboxamide]	500 to 5000	Y (>20 fold)	100 to 1000				< 50	> 11000	Y (1000-5000 fold)
Cc1ccc(O)c(C)c1NC(=O)c1cnc(Nc2cccc(-c3ccc(C(F)(F)F)cc3)n2)s1 [BAA-316, N-(3-hydroxy-2,6-dimethylphenyl)-2-((6-(4-(trifluoromethyl)phenyl)pyridin-2-yl)amino)thiazole-5-carboxamide]	500 to 5000	Y (>20 fold)	100 to 1000	50 to 1000	> 11000	Y (1000-5000 fold)			
Cc1ccc(O)c(C)c1NC(=O)c1cnc(Nc2ccccn2)s1 [BAA-421, N-(3-hydroxy-2,6-dimethylphenyl)-2-(pyridin-2-ylamino)thiazole-5-carboxamide]	500 to 5000	Y (>20 fold)	< 100				< 50	> 11000	X (100-<1000 fold)
Cc1cc(F)cnc1Nc1ncc(C(=O)Nc2c(C)ccc(O)c2C)s1 [BAA-419, 2-((5-fluoro-3-methylpyridin-2-yl)amino)-N-(3-hydroxy-2,6-dimethylphenyl)thiazole-5-carboxamide]	> 5000	Y (>20 fold)	100 to 1000				< 50	> 11000	Y (1000-5000 fold)
Cc1cn(CC(F)(F)F)nc1Nc1ncc(C(=O)Nc2c(C)ccc(O)c2C)s1 [BAA-271, N-(3-hydroxy-2,6-dimethylphenyl)-2-((4-methyl-1-(2,2,2-trifluoroethyl)-1H-pyrazol-3-yl)amino) thiazole-5-carboxamide]	> 5000	Y (>20 fold)	< 100	< 50	> 11000	X (100-<1000 fold)			
Cc1cn(-c2cnn(C(C)C)c2)nc1Nc1ncc(C(=O)Nc2c(C)ccc(O)c2C)s1 [BAA-391, N-(3-hydroxy-2,6-dimethylphenyl)-2-((1′-isopropyl-4-methyl-1′H-[1,4′-bipyrazol]-3-yl)amino)thiazole-5-carboxamide]	500 to 5000	Y (>20 fold)	< 100	< 50	1000 to 11000	X (100-<1000 fold)			
